US11117894B2, “Pyridopyrazine compounds and uses thereof” (CITY OF HOPE, priority 2017, dated 2021)
pIC50: −log10 of the molar value.

Columns and labels:
Format in all cases: cell-based
A549 NSCLC = assay: MTS cell viability assay, A549 lung cancer cell line; details: Homo sapiens, 48 h
Description: (§1) MTS assays were performed for cell viability. To determine if novel pyridopyrazine derivatives have antitumor activities, compounds were screened at 10 μM final concentration with A2058 melanoma and DU145 prostate cancer cell lines. Compounds #16 and #17 were selected to determine IC50 values against lung cancer cell lines, including A549, DMS273, H69, H513, H2461, DMS114, H358 and H2596. In this assay, cells (5000/well) were seeded in 96-well plates, incubated overnight at 37° C. in 5% CO2, and exposed to 10 μM of compounds or in a dose-dependent manner for 48 h. After 48 h treatment with compounds, MTS dye (20 μL/well) was added to 96-well plates. Viable cell numbers were determined by tetrazolium conversion to its formazan dye. Absorbance was measured at 490 nm using an automated ELISA plate reader. Dimethyl sulfoxide (DMSO) was used as the vehicle control. Each experiment was conducted in triplicate. IC50 values were determined using CalcuSyn software (Biosoft).

A2058 melanoma = assay: MTS cell viability assay, A2058 melanoma cell line; details: 48 h; for pIC50: Homo sapiens, MTS; for Viability % CTL A2058 melanoma: Table 1, screened at 10 μM
Description: as §1

H2461 NSCLC = assay: MTS cell viability assay, H2461 lung cancer cell line; details: 48 h
Description: as §1

H358 NSCLC = assay: MTS cell viability assay, H358 lung cancer cell line; details: Homo sapiens, NCI-H358, 48 h
Description: as §1

H2596 NSCLC = assay: MTS cell viability assay, H2596 lung cancer cell line; details: 48 h
Description: as §1

DU145 prostate cancer = assay: MTS cell viability assay, DU145 prostate cancer cell line; details: 48 h; for pIC50: Homo sapiens, DU-145, DU145 prostate cancer, MTS; for Viability % CTL DU145 prostate: Table 1, screened at 10 μM
Description: as §1

[1] = system: DMS273 small cell lung cancer; assay: MTS cell viability assay, DMS273 lung cancer cell line; details: Homo sapiens, DMS-273, 48 h
Description: as §1

H513 NSCLC = assay: MTS cell viability assay, H513 lung cancer cell line; details: 48 h
Description: as §1

[2] = system: DMS114 small cell lung cancer; assay: MTS cell viability assay, DMS114 lung cancer cell line; details: Homo sapiens, DMS-114, 48 h
Description: as §1

[3] = system: H69 small cell lung cancer; assay: MTS cell viability assay, H69 lung cancer cell line; details: 48 h
Description: as §1

pIC50 (A549 NSCLC) | pIC50 (A2058 melanoma) | pIC50 (H2461 NSCLC) | pIC50 (H358 NSCLC) | pIC50 (H2596 NSCLC) | pIC50 (DU145 prostate cancer) | pIC50 [1] | pIC50 (H513 NSCLC) | pIC50 [2] | pIC50 [3] | Structure (SMILES) | Viability % CTL A2058 melanoma (A2058 melanoma) [% CTL] | Viability % CTL DU145 prostate (DU145 prostate cancer) [% CTL]
5.81 | 5.89 | 5.77 | 5.71 | 5.97 | 5.76 | 5.96 | 5.90 | 5.50 | 6.01 | Cc1nc2nc(Nc3ccccc3)cnc2cc1NC(=O)Nc1cccc(C(F)(F)F)c1 [Compound 16, 1-(6-Methyl-3-(phenylamino)pyrido[2,3-b]pyrazin-7-yl)-3-(3-(trifluoromethyl)phenyl)urea] | 4 | 10
6.04 | 5.95 | 6.10 | 5.93 | 6.21 | 5.98 | 6.49 | 6.16 | 6.14 | 6.29 | Cc1nc2nc(Nc3ccccc3)cnc2cc1NC(=O)Nc1ccc(F)c(Cl)c1 [Compound 17, 1-(3-Chloro-4-fluorophenyl)-3-(6-methyl-3-(phenylamino)pyrido[2,3-b]pyrazin-7-yl)urea] | 2 | 0
